According to US10941107B2, “Prodrugs of gamma-hydroxybutyric acid, compositions and uses thereof” (XW LABORATORIES INC., priority 2015, dated 2021):
Counter-ions that a name gives are not always drawn. Like-named read-outs stand apart in the source and are kept apart here.

Columns and labels:
[1] = Human hepatocytes metabolic stability assay; format: in vitro ADME; settings: both sexes, cryopreserved hepatocytes; human hepatocytes 1×10^6 viable cells/mL
Experimental: (§1) Rat/Human Hepatocytes Metabolic Stability Assay
(§2) 2) 30 mM stock solutions of test compounds were prepared in DMSO. Thawing medium and supplement incubation medium (serum-free) were placed in a 37° C. water bath for at least 15 minutes prior to use. Stock solutions were diluted to 500 μM by combining 295 μL acetonitrile and 5 μL of 30 mM stock solution. 3) Vials of cryopreserved hepatocytes were removed from storage, ensured that vials remain at cryogenic temperatures. The pressure was removed by loosening and re-tightening the cap. The vials were thawed in a 37° C. water bath with gently shaking. Vials were kept in water bath until all ice crystals had dissolved and were no longer visible. Vials were sprayed with 70% ethanol before being transferred to a biosafety cabinet. And then the contents were poured into the 50 mL thawing medium conical tube. Vials were centrifuged at 100 g for 10 minutes at room temperature. Thawing medium was aspirated and hepatocytes were resuspended with serum-free incubation medium to yield ˜1.5×10^6 cells/mL. 4) Cell viability and density were counted using a Trypan Blue exclusion, and then cells were diluted with serum-free incubation medium to a working cell density of 1×10^6 viable cells/ml. 5) A portion of the hepatocytes at 1×10^6 viable cells/mL was boiled for 10 min prior to adding to the plate as negative control to eliminate the enzymatic activity so that little or no substrate turnover should be observed. The inactivated hepatocytes were used to prepare negative samples, which were used to exclude the misleading factor that resulted from instability of chemical itself 6) Aliquots of 247.5 μL hepatocytes were dispensed into each well of a 96-well non-coated plate. The plate was placed in the incubator on an orbital shaker at 500 rpm for approximately 10 minutes. 7) Aliquots of 2.5 μL of the 500 μM test compounds were added into respective wells of the non-coated 96-well plate to start the reaction. This assay was performed in duplicate. The plate was incubated in the incubator on an orbital shaker at 500 rpm for the designed time points. […]

[2] = Rat hepatocytes metabolic stability assay; format: in vitro ADME; settings: male, cryopreserved hepatocytes; rat hepatocytes 1×10^6 viable cells/mL
Experimental: as §1, §2

[3] = both, human, pooled liver S9 fractions
[4] = Rat liver S9 fractions metabolic stability assay; settings: both, pooled liver S9 fractions
[5] = background statement; cited from earlier work
[6] = Dog pharmacokinetic study; format: in vivo, male Beagle dogs; settings: male, Beagle, plasma, IV
From the text: For dog pharmacokinetic studies, male Beagle dogs were housed individually. Dogs in oral administration groups were fasted overnight before use but with free access to water supply. Dogs in IV groups have free access to food and water. […]

[7] = background statement; cited from earlier work; remark: listed apart in the source
[8] = Rat pharmacokinetic study; settings: male, Sprague-Dawley, plasma, 50 mg/kg

Compound: CC(=O)NCC(=O)OCCCC(=O)O [Compound 66, 4-(2-acetamidoacetoxy)butanoic Acid]
- half-life at 5 μM [1]: 24.9 min
- half-life at 5 μM [2]: 16.7 min
- half-life at 5 μM [3]: 9.21 min
- half-life at 5 μM [4]: 8 min

Compound: CC(C)C(=O)NCC(=O)OCCCC(=O)O [Compound 64, 4-(2-isobutyramidoacetoxy)butanoic acid]
- half-life at 5 μM [3]: 58 min
- half-life at 5 μM [4]: 62.7 min

Compound: CC(OC(=O)OCCCC(=O)O)OC(=O)c1ccccc1 (stereo not shown) [Compound 89, 4-(1-(benzoyloxy)ethoxycarbonyloxy)butanoic Acid]
- half-life at 5 μM [3]: 10.5 min
- half-life at 5 μM [4]: 17.5 min

Compound: CC(=O)N[C@H](C(=O)OCCCC(=O)O)C(C)C [Compound 67, (S)-4-(2-acetamido-3-methylbutanoyloxy)butanoic acid]
- half-life at 5 μM [1]: 220 min
- half-life at 5 μM [2]: 131 min
- half-life at 5 μM [3]: 83.2 min
- half-life at 5 μM [4]: 74.2 min

Compound: O=C(O)CCCOC(=O)Oc1ccccc1 [Compound 32, 4-(phenoxycarbonyloxy)butanoic acid]
- half-life at 5 μM [3]: 40.4 min
- half-life at 5 μM [4]: 8.5 min

Compound: Cl.N[C@@H](Cc1ccccc1)C(=O)OCCCC(=O)O [hydrochloride salt of Compound 57, (S)-4-(2-amino-3-phenylpropanoyloxy)butanoic acid hydrochloride]
- half-life at 5 μM [3]: 2.15 min
- half-life at 5 μM [4]: 2.48 min

Compound: CC(C)[C@H](N)C(=O)OCCCC(=O)O [Compound 58, (S)-4-(2-amino-3-methylbutanoyloxy)butanoic acid]
- half-life at 5 μM [1]: 160 min
- half-life at 5 μM [2]: 46.7 min

Compound: O=C(O)CCCO [GHB sodium salt]
- reduction of the total number of cataplexy episodes [5]: ~70%
- AUC(0-t) ([6]; GHB sodium salt 20 mg/kg): 35700 ng·h/mL
- bioavailability ([6]; GHB sodium salt 20 mg/kg (reference), read-out: Bioavailability F (%)): 100%
- plasma half-life (t1/2) [7]: < 60 min
- AUC(0-t) ([8]; iv): 25900 ng·h/mL
- bioavailability ([8]; iv): 100%
- AUC(0-t) ([8]; po): 6700 ng·h/mL
- Cmax ([8]; po): 7600 ng/mL
- Tmax ([8]; po): 17 min
- bioavailability ([8]; po): 26%
